According to paper PMC10746112, “Synthesis and Pro-Apoptotic Effects of Nitrovinylanthracenes and Related Compounds in Chronic Lymphocytic Leukaemia (CLL) and Burkitt’s Lymphoma (BL)” (Molecules, 2023):

Columns and labels:
[1] = test system: DG-75 BL cells; test: Annexin V/PI apoptotic assay (FACS); type: cell-based; settings: 10 µM, 48 h, total (early + late) apoptosis
Experimental: (§1) The chemotherapeutic drug taxol was used as a positive control. The pro-apoptotic effects of the selected nitrostyrene compounds 11g, 11h, 11i, 11j, 11k and 11l (10 μM) were determined using FITC (fluorescein isothiocyanate), Annexin V/PI (propidium iodide) staining and FACS (fluorescence-activated cell sorting) analysis to characterise the mode of cellular death induced by the synthesised compounds. Four populations were produced in this assay: Annexin-V- and PI-negative (Q4, healthy cells), Annexin-V-positive and PI-negative (Q3, early apoptosis), Annexin-V- and PI-positive (Q2, late apoptosis) and Annexin-V-negative and PI-positive (Q1, necrosis), which were easily identified and quantified. Apoptosis was assessed as % total apoptosis by a combination of early and late apoptosis (Q3 and Q2, respectively). […] The identification of compounds that can induce apoptosis in cancer cells is required in the development of potential lead structures for anticancer drugs.
(§2) The BL cells DG-75 and MUTU-I (750,000) were treated at 37 °C with either vehicle (0.1% (v/v) EtOH), […] taxol (10 μM) and incubated for 24 h (MUTU-1) or 48 h (DG-75). The CLL cells PGA1 and HG3 (1 × 10^6 cells/mL) were treated at 37 °C with either vehicle (1% (v/v) DMSO) or the nitrostyrene compounds 19a (10 μM, 5 μM and 1 μM) and 19g, 19i, 19l and 19m (10 μM and 1 μM) for 48 h. The cells were then harvested by centrifugation at 400× g in a temperature-controlled Sorvall centrifuge and rinsed with 0.5 mL of Ca^2+ Annexin-V-binding buffer (0.1 M HEPES, pH 7.4; 0.14 M NaCl; 25 mM CaCl2). The samples were resuspended in 50 µL FITC Annexin V (diluted 1:33 in Ca^2+ Annexin V-binding buffer), incubated on ice for 10 min (protected from light), washed with Annexin-V-binding buffer and re-suspended in 500 µL of propidium iodide (PI) solution (0.5 µg/mL). The samples were analysed within 1 h using a BD Accuri C6 flow cytometer counting 10,000 cells and analysed using the FlowJo software (FlowJo LLC, Ashland, OR, USA) package.

[2] = test system: MUTU-I BL cells; test: Annexin V/PI apoptotic assay (FACS); type: cell-based; settings: 10 µM, 24 h, total (early + late) apoptosis
Experimental: as §1, §2

[3] = test system: MUTU-I Burkitt’s lymphoma cell line; settings: nitrostyrenes, 24 h, cited from earlier work
[4] = test system: DG-75 Burkitt’s lymphoma cell line; settings: nitrostyrenes, 1 µM, 48 h; cited from earlier work
[5] = test system: HL-60 promyelocytic leukaemia cells; test: alamarBlue cell viability assay; settings: Homo sapiens, HL-60, 24 h

C/C(=C\c1cccc(Cl)c1)[N+](=O)[O-] [Compound 11h]
DG-75 Apoptosis (%) [1]: 92.0%
MUTU-I Apoptosis (%) [2]: 82.6%
% Viable Cells Remaining MUTU-1 24 h 1 µM ([3]; 1 µM): 39.80%
% Viable Cells Remaining MUTU-1 24 h 10 µM ([3]; 10 µM): 10.28%
% Viable Cells Remaining DG-75 48 h 1 µM [4]: 84.50%
viability at 1 µM ([5]; read-out: % Viable Cells Remaining HL60 24 h 1 µM): 78.2%
viability at 10 µM ([5]; read-out: % Viable Cells Remaining HL60 24 h 10 µM): 6.8%
